# Measurements taken from PMC3225806 (Chemistry & biology, 2011).
# System: full-length JFH-1 replicon
# Experiment: replicon model, intracellular HCV RNA by RT-qPCR
# Type: cell-based, hepatitis C virus in Huh-7 cells
# Conditions: peptides 20 µM, controls 1 µM, 48 hours
row,Structure (SMILES),intracellular HCV RNA levels in replicon cells
1,COc1ccc2c(O[C@@H]3C[C@H]4C(=O)N[C@]5(C(=O)O)C[C@H]5/C=C\CCCCC[C@H](NC(=O)OC5CCCC5)C(=O)N4C3)cc(-c3csc(NC(C)C)n3)nc2c1 [BILN2061],efficiently reduced HCV RNA levels
2,"C[C@@]1(O)[C@H](O)[C@@H](CO)O[C@H]1n1ccc(N)nc1=O [Peptide 2-CMC, 2’-C-methylcytidine]",efficiently reduced HCV RNA levels
